We go through six molecules from ChEMBL document CHEMBL1136240, “Synthesis and anthelmintic activity of cyclohexadepsipeptides with (S,S,S,R,S,R)-configuration” (Bioorg Med Chem Lett, 2003).

Data set [1] is described as follows: LogP (Octanol-water partition coefficient) was measured at pH 2.3. The class given is physicochemical.
Data set [2] concerns Ovis aries. Nature of the data set: In vivo antihelminthic activity against Haemonchus contortus in sheep at a dose of 0.250 mg kg-1. Particulars: dose 0.25 mg kg-1. The data set is classed as functional.
Data set [3] has as its system Ovis aries. Briefly: In vivo antihelminthic activity against Haemonchus contortus in sheep at a dose of 0.50 mg kg-1. The class given is functional. Conditions: dose 0.5 mg kg-1.
In data set [4] the test system is Ovis aries. Nature of the data set: In vivo antihelminthic activity against Haemonchus contortus in sheep at a dose of 0.05 mg kg-1. The class given is functional.
Data set [5] has as its system Ovis aries. Briefly: In vivo antihelminthic activity against Haemonchus contortus in sheep at a dose of 0.10 mg kg-1. Particulars: dose 0.1 mg kg-1. The data set is classed as functional.

Regarding `CCC(C)[C@H]1C(=O)O[C@H](C)C(=O)N(C)[C@@H](C(C)CC)C(=O)O[C@H](C)C(=O)N(C)[C@@H](C(C)CC)C(=O)OCC(=O)N1C` (stereo partly specified), the logD (commonly lipophilicity at a set pH, counting ionised and neutral species) in data set [1] worked out at 4. For the same molecule, the Egg reduction entry in the data set on Ovis aries [2] is recorded as “>=95%”.
On to `CCC(C)[C@H]1C(=O)O[C@H](C(C)C)C(=O)N(C)[C@@H](C(C)CC)C(=O)O[C@H](C(C)C)C(=O)N(C)[C@@H](C(C)CC)C(=O)O[C@H](C(C)C)C(=O)N1C` (stereo partly specified), for which the Egg reduction entry with Ovis aries [3] is “>=95%”.
Turning to `CCC(C)[C@H]1C(=O)O[C@H](C)C(=O)N(C)[C@@H](C)C(=O)O[C@H](C)C(=O)N(C)[C@@H](C(C)CC)C(=O)O[C@H](C)C(=O)N1C` (stereo partly specified), in data set [1], the pH-dependent lipophilicity (logD) came to 3.26. Moreover, in the data set on Ovis aries [4], the Egg reduction result was “>=95%”.
In turn, `CCC(C)[C@H]1C(=O)O[C@H](C)C(=O)N(C)[C@@H](C(C)CC)C(=O)O[C@H](C)C(=O)N(C)[C@@H](C(C)CC)C(=O)O[C@H](C)C(=O)N1C` (stereo partly specified) showed a pH-dependent lipophilicity (logD) in data set [1] of 4.2. Moreover, in the data set on Ovis aries [3], the Egg reduction result is on record as “>=95%”.
For the molecule `CCCC[C@H]1OC(=O)[C@H](C(C)CC)N(C)C(=O)[C@@H](C)OC(=O)[C@H](C(C)CC)N(C)C(=O)[C@@H](C)OC(=O)[C@H](C(C)CC)N(C)C1=O` (stereo partly specified), in the data set on Ovis aries [5], the Egg reduction entry is recorded as “>=95%”. In addition, in data set [1], the logD stood at 5.14.
With `CC[C@H](C)[C@H]1C(=O)O[C@H](C)C(=O)N(C)[C@@H]([C@@H](C)CC)C(=O)O[C@H](C)C(=O)N(C)[C@@H](C)C(=O)OC(C)C(=O)N1C` (single isomer, unassigned), the Egg reduction entry with Ovis aries [5] is recorded as “>=95%”. Moreover, in data set [1], the logD was determined as 3.1.
